Results published in patent publication US5079152A, “Antibody combining sites that exhibit stereoselective synthase activity, and methods using the same” (Scripps Clinic and Research Foundation, priority 1987, dated 1992).
Where two headings read alike, the source gives them in different places.

System: monoclonal antibody 24B11 (receptor lactone synthase secreted by hybridoma 24B11, ATCC HB9488)
Test: Kinetics of lactone-forming cyclization catalyzed by monoclonal receptor lactone synthase 24B11 (phenol release at 271 nm, Lineweaver-Burk)
Format: biochemical, mouse

kcat / kuncat (catalyzed versus uncatalyzed first order cyclization rate constant) | rate acceleration (presence versus absence of the catalytic lactone synthase molecule) | Km (racemic substrate ligand 20-100 uM, receptor 2 uM, 25 mM phosphate buffer pH 7.0, 25 degrees C, read-out: Km) | kcat (receptor 2 uM (IgG, 150,000 daltons), pH 7.0, 25 degrees C) | Vmax (receptor 2 uM, substrate 20-100 uM, pH 7.0, 25 degrees C) | Km (in the absence of binding by the unreactive enantiomer, read-out: Km for the reactive enantiomer of the substrate ligand) | Compound
167 | 167 fold | 76 µM | 0.50 L/min | 0.99 µM/min | – | CC(=O)NCC(O)CCCC(=O)Oc1ccccc1 (racemic) [phenyl 6-acetamido-5-hydroxyhexanoate]
– | – | – | – | – | ~38 µM | CC(=O)NCC(O)CCCC(=O)Oc1ccccc1 (single isomer, unassigned) [reactive enantiomer of the substrate ligand]
